Measured values: patent US20030087956A1, “Urea compounds as inhibitors for vla-4” (priority 2000, published 2003)

Target: T1, integrin α4β1 (Homo sapiens, UniProt P05556+P13612)
T1 construct: expressed on the MOLT-4 cell membrane; host or cells: MOLT-4 human T-lymphoblastic leukaemia cells
Assay: MOLT-4 cell/Fibronectin adhesion assay
Format: cell-based
Settings: MOLT-4 cells on fibronectin-coated plates, 2 h at 37° C., acid phosphatase readout; read-out: inhibitor of MOLT-4 cell adhesion to fibronectin (concentration at which compound is an inhibitor)
Description: MOLT-4 cells—human T-lymphoblastic leukaemia cells (European Collection of Animal Cell Cultures, Porton Down)
Fibronectin—purified from human plasma by gelatin-sepharose affinity chromatography according to the methods described in E. Nengvall, E. Ruoslahti, Int. J. Cancer, 1977, 20, pages 1-5 and J. Forsyth et al, Methods in Enzymology, 1992, 215, pages 311-316).
1.1.1 MOLT-4 cell/Fibronectin adhesion assay.
The MOLT-4 cell/fibronectin adhesion assay was used to investigate the interaction of the integrin α4-β1expressed on the MOLT-4 cell membrane with fibronectin. Polystyrene 96 well plates were coated overnight at 4° C. with fibronectin, 100 μl of 10 μg/ml in PBS. Non-specific adhesion sites were blocked by adding 100 μl BSA, 20 mg/ml. After incubating for 1 h at room temperature, the solutions were aspirated. […] Adherent cells were quantified by a colorimetric acid phosphatase assay. […] After incubation for 1 h at 37° C., 50 μl sodium hydroxide (1M) was added to each well and the absorbance 405 nm was measured on a microplate spectrophotometer. Compounds which inhibited adhesion gave a lower absorbance reading. […] Percentage inhibition was calculated with respect to total (no inhibitor) and non-specific (no fibronectin) standards on each plate.

T1 sequence (P13612 34-1032): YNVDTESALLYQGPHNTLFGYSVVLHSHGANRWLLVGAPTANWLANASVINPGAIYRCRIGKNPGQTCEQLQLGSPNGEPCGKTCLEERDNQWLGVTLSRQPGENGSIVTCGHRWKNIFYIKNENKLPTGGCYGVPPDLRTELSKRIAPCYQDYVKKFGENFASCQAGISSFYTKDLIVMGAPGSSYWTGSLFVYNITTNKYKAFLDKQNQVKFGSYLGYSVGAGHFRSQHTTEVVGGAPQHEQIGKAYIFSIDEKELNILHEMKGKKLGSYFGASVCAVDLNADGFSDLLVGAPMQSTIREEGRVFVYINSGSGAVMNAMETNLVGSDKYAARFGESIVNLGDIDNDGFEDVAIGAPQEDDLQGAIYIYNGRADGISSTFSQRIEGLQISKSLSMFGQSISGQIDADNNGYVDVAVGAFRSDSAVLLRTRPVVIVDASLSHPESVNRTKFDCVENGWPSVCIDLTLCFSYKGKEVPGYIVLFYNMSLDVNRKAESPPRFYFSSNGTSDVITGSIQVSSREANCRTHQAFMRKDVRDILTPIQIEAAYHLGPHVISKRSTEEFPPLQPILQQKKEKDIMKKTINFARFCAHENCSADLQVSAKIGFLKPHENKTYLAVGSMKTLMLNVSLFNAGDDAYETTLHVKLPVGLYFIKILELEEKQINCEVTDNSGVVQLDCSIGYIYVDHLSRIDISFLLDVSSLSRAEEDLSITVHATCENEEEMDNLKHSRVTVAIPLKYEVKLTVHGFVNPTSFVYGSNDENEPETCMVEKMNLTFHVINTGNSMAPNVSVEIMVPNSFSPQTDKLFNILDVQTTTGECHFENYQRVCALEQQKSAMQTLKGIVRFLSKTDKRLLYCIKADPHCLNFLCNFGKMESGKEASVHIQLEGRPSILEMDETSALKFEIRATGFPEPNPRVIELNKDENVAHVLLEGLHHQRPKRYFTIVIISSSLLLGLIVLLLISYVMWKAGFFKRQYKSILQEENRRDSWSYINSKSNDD
T1 sequence (P05556 21-798): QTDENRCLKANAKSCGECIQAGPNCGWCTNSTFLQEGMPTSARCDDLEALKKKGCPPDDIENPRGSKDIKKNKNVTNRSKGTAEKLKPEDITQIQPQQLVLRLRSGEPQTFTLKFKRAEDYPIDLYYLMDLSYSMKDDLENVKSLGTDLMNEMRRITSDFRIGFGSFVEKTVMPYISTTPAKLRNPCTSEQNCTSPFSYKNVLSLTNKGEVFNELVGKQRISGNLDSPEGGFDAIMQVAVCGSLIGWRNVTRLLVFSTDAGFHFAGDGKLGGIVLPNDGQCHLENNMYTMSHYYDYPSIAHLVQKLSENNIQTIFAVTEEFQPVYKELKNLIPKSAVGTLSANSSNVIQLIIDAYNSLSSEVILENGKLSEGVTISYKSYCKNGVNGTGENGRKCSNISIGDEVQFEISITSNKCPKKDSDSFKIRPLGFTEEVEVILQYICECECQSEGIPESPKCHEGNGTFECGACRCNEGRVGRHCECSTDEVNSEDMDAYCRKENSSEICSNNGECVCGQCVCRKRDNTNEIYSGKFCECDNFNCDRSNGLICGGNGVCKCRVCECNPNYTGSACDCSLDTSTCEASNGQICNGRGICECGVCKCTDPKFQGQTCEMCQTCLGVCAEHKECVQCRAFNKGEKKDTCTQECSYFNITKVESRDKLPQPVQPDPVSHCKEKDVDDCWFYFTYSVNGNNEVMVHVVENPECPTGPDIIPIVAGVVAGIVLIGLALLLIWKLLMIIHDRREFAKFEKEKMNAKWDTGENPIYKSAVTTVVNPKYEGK

SMILES: Cc1ccccc1NC(=O)Nc1ccc(CC(=O)Nc2ccc(OCCN3CCCCC3)c(OCCCC(=O)O)c2)cc1 [Compound 1]
- IC50: 87 nM

SMILES: Cc1ccccc1NC(=O)Nc1ccc(CC(=O)Nc2ccc(OCCCN3CCCC3)c(OCCCC(=O)O)c2)cc1 [Compound 2]
- IC50: 84 nM
